Common to all, as to type: biochemical
In one test the target is T1, Lyn (Homo sapiens, UniProt P07948).
T1 construct: Kinases are expressed as either kinase domains or full length constructs; made in house
Briefly: Kinase inhibition assay (33P transfer), Lyn. As to conditions: Table 6, Lyn-1 kinase inhibition class. A digest of the protocol:
(§1)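 Read-out: scintillation counts of 33P moved from ATP onto synthetic peptide polymer coated on the well surface, after washing with 0.5% phosphoric acid. Enzymes were tagged (GST or polyHistidine) and came from bacterial or insect-cell expression. IC50 marks 50% loss of incorporated label.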

The next test has as its target T2, Src (Homo sapiens, UniProt P12931).
T2 construct: Kinases are expressed as either kinase domains or full length constructs; made in house
As to the kind of experiment: Kinase inhibition assay (33P transfer), Src. As to conditions: Table 6, Src-1 kinase inhibition class. A digest of the protocol: as §1

Another test concerns the target T3, c-Met (Homo sapiens, UniProt P08581).
T3 construct: Kinases are expressed as either kinase domains or full length constructs; made in house
Briefly: Kinase inhibition assay (33P transfer), c-Met. As to conditions: Table 2, kinase inhibition class; read-out: Met-1. A digest of the protocol:
as §1

The next test deals with T4, ErbB4 (Homo sapiens, UniProt Q15303).
T4 construct: Kinases are expressed as either kinase domains or full length constructs; made in house
Briefly: Kinase inhibition assay (33P transfer), ErbB4. Conditions: read-out: ErbB4-1.

The next test addresses T5, IGFR-1 (Homo sapiens, UniProt P08069).
T5 construct: Kinases are expressed as either kinase domains or full length constructs; made in house
As to the kind of experiment: Kinase inhibition assay (33P transfer), IGFR-1. Conditions: Table 2, kinase inhibition class.

Another test addresses T6, Lck (Homo sapiens, UniProt P06239).
T6 construct: Kinases are expressed as either kinase domains or full length constructs; made in house
As to the kind of experiment: Kinase inhibition assay (33P transfer), Lck. Conditions: Table 3; read-out: Lck-1. In short, it runs like this:
(§2)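 Enzyme activity is taken as the amount of 33PO4 moved from ATP onto poly(Glu, Tyr) 4:1 or poly(Arg, Ser) 3:1 fixed to the plate surface. Unbound label is removed with 0.5% phosphoric acid before scintillation counting.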

A further test deals with T7, EGFR (Homo sapiens, UniProt P00533).
T7 construct: Kinases are expressed as either kinase domains or full length constructs; made in house
Briefly: Kinase inhibition assay (33P transfer), EGFR. As to conditions: Table 2, kinase inhibition class; read-out: EGFR-1. In short, it runs like this: as §1

The target in a further test is T8, Tek (Homo sapiens, UniProt Q02763).
T8 construct: Kinases are expressed as either kinase domains or full length constructs; made in house
Briefly: Kinase inhibition assay (33P transfer), Tek. Conditions: read-out: Tek-1. In short, it runs like this: as §1

A further test addresses T9, PDGFRB (Homo sapiens, UniProt P09619).
T9 construct: Kinases are expressed as either kinase domains or full length constructs; made in house
Briefly: Kinase inhibition assay (33P transfer), PDGFRB. Conditions: read-out: PDGFRB-1.

A further test addresses T10, Itk (Homo sapiens, UniProt Q08881).
T10 construct: Kinases are expressed as either kinase domains or full length constructs; made in house
T10 sequence (Q08881 1-620): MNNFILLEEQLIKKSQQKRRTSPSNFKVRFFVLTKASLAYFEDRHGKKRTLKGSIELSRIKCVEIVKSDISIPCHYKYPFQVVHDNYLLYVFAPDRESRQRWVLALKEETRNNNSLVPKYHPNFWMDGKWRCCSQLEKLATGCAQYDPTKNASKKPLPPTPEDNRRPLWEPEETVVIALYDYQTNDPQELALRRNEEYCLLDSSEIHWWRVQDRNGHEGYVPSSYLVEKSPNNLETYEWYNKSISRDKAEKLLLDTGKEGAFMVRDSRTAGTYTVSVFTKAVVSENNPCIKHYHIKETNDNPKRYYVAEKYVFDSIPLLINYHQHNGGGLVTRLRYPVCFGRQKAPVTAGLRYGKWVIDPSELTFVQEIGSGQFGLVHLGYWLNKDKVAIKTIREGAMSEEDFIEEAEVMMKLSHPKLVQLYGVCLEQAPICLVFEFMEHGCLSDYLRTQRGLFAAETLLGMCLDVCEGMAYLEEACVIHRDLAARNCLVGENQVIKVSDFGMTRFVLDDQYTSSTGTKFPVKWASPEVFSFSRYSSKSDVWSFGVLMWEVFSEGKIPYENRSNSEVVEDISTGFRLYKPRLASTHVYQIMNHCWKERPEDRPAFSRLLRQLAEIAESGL
Briefly: Kinase inhibition assay (33P transfer), Itk. As to conditions: Table 3; read-out: Itk-1. A digest of the protocol:
as §1

In another test the target is T11, FGFR1 (Homo sapiens, UniProt P11362).
T11 construct: Kinases are expressed as either kinase domains or full length constructs; made in house
Briefly: Kinase inhibition assay (33P transfer), FGFR1. Conditions: read-out: FGFR1-1.

A further test deals with T12, Kdr (Homo sapiens, UniProt P35968).
T12 construct: Kinases are expressed as either kinase domains or full length constructs; made in house
As to the kind of experiment: Kinase inhibition assay (33P transfer), Kdr. Conditions: Table 3; read-out: KDR-1. A digest of the protocol:
as §2

The next test concerns the target T13, Ret-1 (Homo sapiens, UniProt P07949).
T13 construct: Kinases are expressed as either kinase domains or full length constructs; made in house
Briefly: Kinase inhibition assay (33P transfer), Ret. As to conditions: Table 6, Ret-1 kinase inhibition class.

T9 sequence (P09619 33-1106, species assumed): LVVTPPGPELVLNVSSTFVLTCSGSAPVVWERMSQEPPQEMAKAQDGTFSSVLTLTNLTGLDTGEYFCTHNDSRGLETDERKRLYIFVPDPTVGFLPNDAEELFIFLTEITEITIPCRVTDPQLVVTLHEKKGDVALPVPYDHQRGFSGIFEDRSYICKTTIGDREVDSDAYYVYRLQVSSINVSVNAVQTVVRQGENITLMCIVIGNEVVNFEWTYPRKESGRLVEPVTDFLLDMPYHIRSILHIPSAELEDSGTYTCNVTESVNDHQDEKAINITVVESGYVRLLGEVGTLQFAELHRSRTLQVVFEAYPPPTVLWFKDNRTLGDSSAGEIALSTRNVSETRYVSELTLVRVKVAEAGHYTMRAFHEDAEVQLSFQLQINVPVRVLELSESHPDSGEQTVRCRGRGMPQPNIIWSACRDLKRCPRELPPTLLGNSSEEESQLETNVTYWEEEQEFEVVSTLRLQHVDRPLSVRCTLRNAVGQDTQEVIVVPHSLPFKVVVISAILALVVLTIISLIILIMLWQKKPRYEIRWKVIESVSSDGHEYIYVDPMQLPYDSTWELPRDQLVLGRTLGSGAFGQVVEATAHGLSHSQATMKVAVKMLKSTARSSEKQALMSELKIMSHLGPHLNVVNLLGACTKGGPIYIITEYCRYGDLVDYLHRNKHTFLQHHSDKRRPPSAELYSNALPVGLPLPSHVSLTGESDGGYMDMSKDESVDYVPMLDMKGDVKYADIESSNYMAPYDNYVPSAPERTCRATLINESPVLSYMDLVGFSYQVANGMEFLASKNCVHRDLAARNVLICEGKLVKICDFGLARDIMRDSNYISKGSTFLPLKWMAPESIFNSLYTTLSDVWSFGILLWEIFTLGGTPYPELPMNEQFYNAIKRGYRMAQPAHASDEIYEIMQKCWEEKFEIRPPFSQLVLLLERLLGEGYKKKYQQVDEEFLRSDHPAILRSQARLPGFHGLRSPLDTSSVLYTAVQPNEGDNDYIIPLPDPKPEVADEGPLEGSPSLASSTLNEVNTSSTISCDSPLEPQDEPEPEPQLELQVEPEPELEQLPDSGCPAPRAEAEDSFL
T12 sequence (P35968 20-1356, species assumed): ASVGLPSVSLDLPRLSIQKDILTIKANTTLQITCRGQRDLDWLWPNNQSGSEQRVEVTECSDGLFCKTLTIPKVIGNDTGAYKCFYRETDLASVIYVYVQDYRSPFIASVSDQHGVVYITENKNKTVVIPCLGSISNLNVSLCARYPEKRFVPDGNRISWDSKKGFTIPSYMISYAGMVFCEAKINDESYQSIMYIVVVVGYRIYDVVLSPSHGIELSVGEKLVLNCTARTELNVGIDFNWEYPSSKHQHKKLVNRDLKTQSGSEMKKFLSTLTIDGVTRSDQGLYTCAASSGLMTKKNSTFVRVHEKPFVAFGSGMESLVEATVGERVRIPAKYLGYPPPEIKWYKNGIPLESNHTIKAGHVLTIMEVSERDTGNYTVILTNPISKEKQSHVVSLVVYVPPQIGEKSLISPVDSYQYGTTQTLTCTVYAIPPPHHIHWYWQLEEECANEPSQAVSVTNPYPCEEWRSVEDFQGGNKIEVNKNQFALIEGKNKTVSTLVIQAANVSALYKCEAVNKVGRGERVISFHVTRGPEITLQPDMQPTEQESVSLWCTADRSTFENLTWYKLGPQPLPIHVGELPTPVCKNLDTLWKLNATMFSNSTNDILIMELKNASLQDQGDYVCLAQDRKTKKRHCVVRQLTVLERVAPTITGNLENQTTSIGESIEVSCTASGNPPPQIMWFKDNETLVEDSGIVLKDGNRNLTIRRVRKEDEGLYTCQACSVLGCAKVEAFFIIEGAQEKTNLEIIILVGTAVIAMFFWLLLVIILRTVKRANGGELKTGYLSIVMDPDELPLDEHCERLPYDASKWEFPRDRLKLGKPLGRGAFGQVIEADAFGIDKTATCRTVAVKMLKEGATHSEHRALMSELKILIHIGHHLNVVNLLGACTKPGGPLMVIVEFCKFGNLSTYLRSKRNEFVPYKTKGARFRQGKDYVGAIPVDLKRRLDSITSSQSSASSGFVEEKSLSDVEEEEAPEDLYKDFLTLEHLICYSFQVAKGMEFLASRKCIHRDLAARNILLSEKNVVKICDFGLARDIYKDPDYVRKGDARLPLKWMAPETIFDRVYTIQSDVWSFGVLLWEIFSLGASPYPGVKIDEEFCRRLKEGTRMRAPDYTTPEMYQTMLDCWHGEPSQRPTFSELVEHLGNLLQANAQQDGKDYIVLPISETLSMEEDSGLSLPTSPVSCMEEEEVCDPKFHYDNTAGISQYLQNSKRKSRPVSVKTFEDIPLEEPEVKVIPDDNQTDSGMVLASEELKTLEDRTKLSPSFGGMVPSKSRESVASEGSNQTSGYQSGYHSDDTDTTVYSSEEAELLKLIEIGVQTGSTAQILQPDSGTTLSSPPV
T13 sequence (P07949 29-1114): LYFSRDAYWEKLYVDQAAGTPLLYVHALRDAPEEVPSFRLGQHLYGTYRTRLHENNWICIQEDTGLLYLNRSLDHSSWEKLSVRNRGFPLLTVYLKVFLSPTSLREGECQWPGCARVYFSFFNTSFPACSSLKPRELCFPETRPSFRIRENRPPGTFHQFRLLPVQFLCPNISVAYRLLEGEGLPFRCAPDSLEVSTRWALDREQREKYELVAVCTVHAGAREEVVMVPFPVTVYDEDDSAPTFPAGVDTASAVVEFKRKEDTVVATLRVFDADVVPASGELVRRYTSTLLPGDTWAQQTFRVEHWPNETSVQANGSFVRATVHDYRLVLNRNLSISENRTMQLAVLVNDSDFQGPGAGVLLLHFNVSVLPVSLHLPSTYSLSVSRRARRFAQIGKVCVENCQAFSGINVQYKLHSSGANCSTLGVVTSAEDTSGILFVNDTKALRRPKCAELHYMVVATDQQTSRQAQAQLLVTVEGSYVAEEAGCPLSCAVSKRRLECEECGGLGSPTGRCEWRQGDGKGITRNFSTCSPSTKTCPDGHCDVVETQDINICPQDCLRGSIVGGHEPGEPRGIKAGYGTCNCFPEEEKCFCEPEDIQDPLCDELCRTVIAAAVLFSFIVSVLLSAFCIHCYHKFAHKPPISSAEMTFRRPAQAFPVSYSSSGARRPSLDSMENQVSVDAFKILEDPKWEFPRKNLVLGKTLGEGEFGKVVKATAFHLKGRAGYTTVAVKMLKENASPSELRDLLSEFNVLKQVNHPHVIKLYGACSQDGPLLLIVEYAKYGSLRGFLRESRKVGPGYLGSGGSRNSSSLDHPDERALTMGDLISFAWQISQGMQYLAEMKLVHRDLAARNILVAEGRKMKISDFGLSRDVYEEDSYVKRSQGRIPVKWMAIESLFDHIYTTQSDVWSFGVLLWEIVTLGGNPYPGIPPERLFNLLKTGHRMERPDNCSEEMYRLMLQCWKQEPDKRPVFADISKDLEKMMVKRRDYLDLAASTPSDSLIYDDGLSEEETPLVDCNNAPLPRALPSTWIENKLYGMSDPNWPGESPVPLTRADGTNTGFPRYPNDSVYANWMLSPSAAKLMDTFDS
T7 sequence (P00533 25-1210, species assumed): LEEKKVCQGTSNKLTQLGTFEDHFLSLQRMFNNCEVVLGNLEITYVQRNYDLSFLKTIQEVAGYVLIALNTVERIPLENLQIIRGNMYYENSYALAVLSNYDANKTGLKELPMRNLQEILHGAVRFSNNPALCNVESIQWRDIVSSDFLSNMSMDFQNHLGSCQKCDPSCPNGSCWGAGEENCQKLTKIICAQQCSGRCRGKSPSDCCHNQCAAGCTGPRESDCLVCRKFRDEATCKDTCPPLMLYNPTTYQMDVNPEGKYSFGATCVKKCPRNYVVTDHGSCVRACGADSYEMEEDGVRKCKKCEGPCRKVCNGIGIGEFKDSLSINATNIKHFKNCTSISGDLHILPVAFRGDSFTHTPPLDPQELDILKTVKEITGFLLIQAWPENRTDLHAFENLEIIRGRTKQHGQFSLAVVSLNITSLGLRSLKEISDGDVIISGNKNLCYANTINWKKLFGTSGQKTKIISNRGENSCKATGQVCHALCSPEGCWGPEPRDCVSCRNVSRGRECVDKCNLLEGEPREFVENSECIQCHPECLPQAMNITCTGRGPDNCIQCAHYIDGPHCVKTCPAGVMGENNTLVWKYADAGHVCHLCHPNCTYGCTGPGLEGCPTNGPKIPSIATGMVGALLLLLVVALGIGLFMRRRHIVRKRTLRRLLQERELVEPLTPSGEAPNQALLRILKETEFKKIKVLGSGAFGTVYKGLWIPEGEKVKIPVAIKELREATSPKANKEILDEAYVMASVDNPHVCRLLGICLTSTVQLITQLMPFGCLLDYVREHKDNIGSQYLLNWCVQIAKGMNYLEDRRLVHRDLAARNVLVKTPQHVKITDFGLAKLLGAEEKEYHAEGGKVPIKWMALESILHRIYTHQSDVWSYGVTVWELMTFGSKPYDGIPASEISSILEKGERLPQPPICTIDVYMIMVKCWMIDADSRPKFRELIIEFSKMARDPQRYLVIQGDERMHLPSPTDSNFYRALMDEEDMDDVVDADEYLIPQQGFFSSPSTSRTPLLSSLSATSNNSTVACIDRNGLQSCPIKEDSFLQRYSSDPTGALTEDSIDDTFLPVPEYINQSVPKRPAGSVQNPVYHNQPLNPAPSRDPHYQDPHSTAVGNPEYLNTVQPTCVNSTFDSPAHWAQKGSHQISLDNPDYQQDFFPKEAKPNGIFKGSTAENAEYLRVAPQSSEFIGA

For the molecule `COCCOc1ccc(Nc2ncnc(Nc3ccc4[nH]ccc4c3)n2)cc1OCCOC` [Compound 321], the IC50 was < 0.888 µM at Lyn; 0.888 to 5.33 µM at Src; > 9.99 µM at c-Met; > 9.99 µM at ErbB4; 5.33 to 7.77 µM on IGFR-1; 7.77 to 9.99 µM at Lck. Moreover, the IC50 was < 0.888 µM on EGFR; > 9.99 µM on Tek; 0.888 to 5.33 µM on PDGFRB; > 9.99 µM at Itk; > 9.99 µM on FGFR1; < 0.888 µM on Kdr. At Ret-1, this molecule returned an IC50 of 0.888 to 5.33 µM.

In the case of `COCCOc1ccc(Nc2ncnc(Nc3ccc(C)c(O)c3)n2)cc1OCCOC` [Compound 125], the IC50 on Lyn is < 0.906 µM; at Src, < 0.906 µM; at c-Met, > 10.2 µM; on ErbB4, 7.93 to 10.2 µM; against IGFR-1, 0.906 to 5.44 µM; on Lck, 0.906 to 5.44 µM. Also, the IC50 at EGFR was 0.906 to 5.44 µM; on Tek it was > 10.2 µM; on PDGFRB, < 0.906 µM; at Itk it was 5.44 to 7.93 µM; on FGFR1, 0.906 to 5.44 µM; on Kdr it was < 0.906 µM. The IC50 at Ret-1 lay in the range of 0.906 to 5.44 µM.

Consider `COCCOc1ccc(Nc2ncnc(-n3c(N)nc4ccccc43)n2)cc1OCCOC` [Compound 302], for which the IC50 was > 9.97 µM at Lyn; > 9.97 µM against Src; > 9.97 µM at c-Met; > 9.97 µM at ErbB4; < 0.886 µM against IGFR-1; > 9.97 µM on Lck. For the same molecule, the IC50 was > 9.97 µM on EGFR; > 9.97 µM at Tek; > 9.97 µM on PDGFRB; > 9.97 µM at Itk; 0.886 to 5.32 µM at FGFR1; 0.886 to 5.32 µM at Kdr. The IC50 against Ret-1 is > 9.97 µM.

Consider `COc1cc(Nc2ncnc(-n3ccc4c(OC)cccc43)n2)cc(OC)c1OC` [Compound 238], for which the IC50 against Lyn, at Src, on c-Met, at ErbB4, on IGFR-1 and at Lck was > 11 µM each time. Also, the IC50 at EGFR was > 11 µM; on Tek, > 11 µM; at PDGFRB, 0.982 to 5.89 µM; at Itk it was > 11 µM; on FGFR1 it was > 11 µM; at Kdr, 0.982 to 5.89 µM. The IC50 at Ret-1 is > 11 µM.

For the molecule `COCCOc1cc(Nc2ncnc(Nc3ccc(C)c(O)c3)n2)ccc1OC` [Compound 127], the IC50 against Lyn is < 1.01 µM; at Src it was < 1.01 µM; at c-Met, > 11.3 µM; on ErbB4, 1.01 to 6.04 µM; against IGFR-1 it was 1.01 to 6.04 µM; at Lck, 1.01 to 6.04 µM. Besides, the IC50 at EGFR is < 1.01 µM; on Tek, > 11.3 µM; at PDGFRB it was < 1.01 µM; on Itk, > 11.3 µM; on FGFR1, 1.01 to 6.04 µM; on Kdr, < 1.01 µM. On Ret-1, the IC50 is < 1.01 µM.

For `COc1cc(Nc2ncnc(Nc3cc(C(C)(C)C)[nH]n3)n2)cc(OC)c1OC` [Compound 313], the IC50 at Lyn is < 1 µM; at Src, < 1 µM; at c-Met, < 1 µM; at ErbB4, < 1 µM; on IGFR-1 it was < 1 µM; on Lck, 1 to 6.01 µM. Moreover, the IC50 is 1 to 6.01 µM at EGFR; > 11.3 µM at Tek; 1 to 6.01 µM at PDGFRB; 6.01 to 8.76 µM on Itk; 1 to 6.01 µM on FGFR1; 1 to 6.01 µM at Kdr. On Ret-1, this molecule gave an IC50 of 1 to 6.01 µM.

Consider `COc1ccc(Nc2ncnc(N(C/C=C/c3ccccc3)c3ccc(Cl)cc3)n2)cc1OC` [Compound 974], for which the IC50 at Lyn is 5.06 to 7.38 µM; against Src it was > 9.49 µM; on c-Met, > 9.49 µM; on ErbB4, > 9.49 µM; against IGFR-1 it was > 9.49 µM; at Lck, 5.06 to 7.38 µM. The IC50 is < 0.844 µM on EGFR; > 9.49 µM on Tek; > 9.49 µM at PDGFRB; > 9.49 µM on Itk; 5.06 to 7.38 µM on FGFR1; 0.844 to 5.06 µM on Kdr. Also, the IC50 against Ret-1 is > 9.49 µM.

Regarding `COc1cc(Nc2ncnc(-n3ncc4ccccc43)n2)cc(OC)c1OC` [Compound 240], the IC50 is 1.06 to 6.34 µM against Lyn; 9.25 to 11.9 µM against Src; > 11.9 µM at c-Met; > 11.9 µM at ErbB4; > 11.9 µM against IGFR-1; 1.06 to 6.34 µM on Lck. In addition, the IC50 on EGFR is > 11.9 µM; on Tek, > 11.9 µM; at PDGFRB, < 1.06 µM; on Itk, > 11.9 µM; on FGFR1 it was 6.34 to 9.25 µM; on Kdr, 1.06 to 6.34 µM. On Ret-1, this molecule came in with an IC50 of 6.34 to 9.25 µM.

Turning to `COc1cc(Nc2ncnc(Nc3cccc(F)c3)n2)cc(OC)c1OC` [Compound 304], the IC50 was < 1.08 µM against Lyn; < 1.08 µM against Src; 1.08 to 6.46 µM on c-Met; < 1.08 µM on ErbB4; < 1.08 µM against IGFR-1; < 1.08 µM on Lck. Moreover, the IC50 on EGFR was < 1.08 µM; on Tek it was > 12.1 µM; at PDGFRB, < 1.08 µM; on Itk, 9.42 to 12.1 µM; on FGFR1, 1.08 to 6.46 µM; at Kdr it was < 1.08 µM. For the same molecule, the IC50 at Ret-1 is < 1.08 µM.

Consider `COc1cc(Nc2ncnc(N(C/C=C/c3ccccc3)c3ccc(Cl)cc3)n2)cc(OC)c1OC` [Compound 56], for which the IC50 at Lyn was 0.794 to 4.76 µM; against Src, > 8.93 µM; on c-Met, > 8.93 µM; on ErbB4, > 8.93 µM; at IGFR-1, 6.94 to 8.93 µM; on Lck, 4.76 to 6.94 µM. The IC50 at EGFR was < 0.794 µM; at Tek, > 8.93 µM; at PDGFRB it was > 8.93 µM; on Itk, > 8.93 µM; on FGFR1, 4.76 to 6.94 µM; at Kdr, 0.794 to 4.76 µM. The IC50 on Ret-1 was > 8.93 µM.

Consider `COC(=O)c1sccc1Nc1ncnc(Nc2cc(OC)c(OC)c(OC)c2)n1` [Compound 315], for which the IC50 on Lyn is > 10.8 µM; against Src, > 10.8 µM; on c-Met it was 8.38 to 10.8 µM; at ErbB4, 0.958 to 5.75 µM; against IGFR-1 it was > 10.8 µM; at Lck it was 8.38 to 10.8 µM. In addition, the IC50 on EGFR is > 10.8 µM; on Tek it was > 10.8 µM; on PDGFRB, 0.958 to 5.75 µM; on Itk it was > 10.8 µM; at FGFR1, > 10.8 µM; on Kdr, < 0.958 µM. For the same molecule, the IC50 against Ret-1 is > 10.8 µM.

As to `COc1cc(Nc2ncnc(Nc3ccc(Br)cc3F)n2)cc(OC)c1OC` [Compound 41], the IC50 on Lyn was < 0.888 µM; at Src, 0.888 to 5.33 µM; at c-Met, 5.33 to 7.77 µM; at ErbB4, > 9.99 µM; against IGFR-1 it was 0.888 to 5.33 µM; on Lck, 5.33 to 7.77 µM. Besides, the IC50 was < 0.888 µM at EGFR; 7.77 to 9.99 µM on Tek; 0.888 to 5.33 µM on PDGFRB; 7.77 to 9.99 µM at Itk; 5.33 to 7.77 µM at FGFR1; < 0.888 µM at Kdr. For the same molecule, at Ret-1, the IC50 is < 0.888 µM.
